# Measured values reported in patent US20250011330A1, “Imidazo[1,2- a]pyrazine and Imidazo[1,2- a]pyridine Based Tyrosyl-DNA Phosphodiesterase I (TDP1) Inhibitors” (The USA, As Represented by the Secretary, Department of …, priority 2021, published 2025).
# pIC50: −log10 of the molar value.
# Biological target: TDP1 (Homo sapiens (Human), UniProt Q9NUW8)
# Assay: TDP1 gel-based in vitro fluorescence assay
# Assay type: biochemical
# Details: Table 1, imidazo[1,2-a]pyridin-3-amines; read-out: IC50
# Description: (§1) (TDP assay buffer: 50 mM Tris HCl, pH 7.5, 80 mM KCl, 2 mM EDTA, 1 mM DTT, 40 μg/ml BSA and 0.01% Tween-20. TDP1 (20 mg/mL in 25 mM Tris-HCl pH 7.2, 150 mM NaCl, 2 mM tris(2-carboxyethyl)phosphine) with 2 mL of well solution composed of 0.1 M MOPS/HEPES pH 7.5, 10% (w/v) PEG 8000, 20% (v/v) ethylene glycol, 0.03 M sodium fluoride, 0.03 M sodium bromide, 0.03 M sodium iodide, 0.03 M sodium bromide and sealed over […] well solution. AF647 labelling buffer: Tris-HCl (pH 7.2, 25 mM), NaCl (150 mM), and tris(2-carboxyethyl)phosphine hydrochloride (TCEP, 2 mM).)
# (§2) (DNA only: Buffer+DMSO. DMSO only: Enzyme+DMSO. Drug: Enzyme+Drug, 25° C., 10 min+DNA, reaction at 25° C., 15 min.)
# Gel images were scanned using a Typhoon FLA 9500 scanner (GE Healthcare) and densitometric analyses were performed using the ImageQuant software (GE Healthcare). The IC50 of TDP1 inhibitors was calculated by comparing the percentage of cleavage product (5′Cy5-[…]-p-3′) to DMSO control.
# TDP1, sequence (Q9NUW8 whole entry): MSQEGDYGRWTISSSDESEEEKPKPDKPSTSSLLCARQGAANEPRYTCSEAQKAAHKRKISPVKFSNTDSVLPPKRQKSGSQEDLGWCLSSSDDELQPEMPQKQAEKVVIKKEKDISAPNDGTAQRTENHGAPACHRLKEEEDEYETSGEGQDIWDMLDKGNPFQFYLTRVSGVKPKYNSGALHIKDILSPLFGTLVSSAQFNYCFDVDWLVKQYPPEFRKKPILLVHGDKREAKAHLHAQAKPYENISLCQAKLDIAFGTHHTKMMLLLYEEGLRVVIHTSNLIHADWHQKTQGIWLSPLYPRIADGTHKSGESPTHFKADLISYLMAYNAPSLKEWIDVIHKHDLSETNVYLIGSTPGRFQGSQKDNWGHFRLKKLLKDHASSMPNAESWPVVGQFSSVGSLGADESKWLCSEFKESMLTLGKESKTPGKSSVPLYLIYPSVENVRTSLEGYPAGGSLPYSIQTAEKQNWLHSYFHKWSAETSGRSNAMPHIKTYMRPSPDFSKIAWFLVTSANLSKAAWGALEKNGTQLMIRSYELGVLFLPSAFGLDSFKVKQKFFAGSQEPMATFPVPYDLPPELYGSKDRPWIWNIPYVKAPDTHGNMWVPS
row,Structure (SMILES),pIC50
1,"c1ccc(Nc2c(-c3ccccc3)nc3ccccn23)cc1 [Compound 6t, N,2-Diphenylimidazo[1,2-a]pyridin-3-amine]",< 4.00
2,"Cc1ccc(-c2nc3ccccn3c2Nc2ccc(C(=O)O)cc2)cc1 [Compound 8b, 4-((2-(p-Tolyl)imidazo[1,2-a]pyridin-3-yl)amino)benzoic acid]",4.83
3,"O=C(O)c1ccc(Nc2c(-c3ccc(OCc4ccccc4)cc3)nc3ccccn23)cc1 [Compound 8c, 4-((2-(4-(Benzyloxy)phenyl)imidazo[1,2-a]pyridin-3-yl)amino)benzoic acid]",4.90
4,"O=C(O)c1ccc(Nc2c(-c3ccc(C(F)(F)F)cc3)nc3ccccn23)cc1 [Compound 8d, 4-((2-(4-(Trifluoromethyl)phenyl)imidazo[1,2-a]pyridin-3-yl)amino)benzoic acid]",5.38
5,"O=C(O)c1ccc(Nc2c(-c3ccc([N+](=O)[O-])cc3)nc3ccccn23)cc1 [Compound 8e, 4-((2-(4-Nitrophenyl)imidazo[1,2-a]pyridin-3-yl)amino)benzoic acid]",5.49
6,"O=C(O)c1ccc(Nc2c(-c3ccc(O)cc3)nc3ccccn23)cc1 [Compound 8f, 4-((2-(4-Hydroxyphenyl)imidazo[1,2-a]pyridin-3-yl)amino)benzoic acid]",< 4.00
7,"O=C(O)c1ccc(Nc2c(-c3ccc(S(=O)(=O)O)cc3)nc3ccccn23)cc1 [Compound 8g, 4-((2-(4-Sulfophenyl)imidazo[1,2-a]pyridin-3-yl)amino)benzoic acid]",< 4.00
8,"O=C(O)c1ccc(Nc2c(-c3ccc(C(=O)O)cc3)nc3ccccn23)cc1 [Compound 8h, 4-(3-((4-Carboxyphenyl)amino)imidazo[1,2-a]pyridin-2-yl)benzoic acid]",< 4.00
9,"O=C(O)c1ccc(-c2nc3ccccn3c2Nc2ccccc2)cc1 [Compound 8i, 4-(3-(Phenylamino)imidazo[1,2-a]pyridin-2-yl)benzoic acid]",4.40
10,"O=C(O)c1ccc(Nc2c(-c3ccccc3C(=O)O)nc3ccc(C(=O)O)cn23)cc1 [Compound 8j, 2-(2-Carboxyphenyl)-3-((4-carboxyphenyl)amino)imidazo[1,2-a]pyridine-6-carboxylic acid]",< 4.00
11,"O=C(O)c1ccc2nc(-c3ccccc3)c(Nc3ccccc3)n2c1 [Compound 8k, 2-Phenyl-3-(phenylamino)imidazo[1,2-a]pyridine-6-carboxylic acid]",5.62
12,"O=C(O)c1ccc2nc(-c3ccccc3)c(Nc3ccc([N+](=O)[O-])cc3)n2c1 [Compound 8l, 3-((4-Nitrophenyl)amino)-2-phenylimidazo[1,2-a]pyridine-6-carboxylic acid]",4.66
13,"CS(=O)(=O)c1ccc2nc(-c3ccc(-c4ccccc4)cc3)c(Nc3ccc(C(=O)O)cc3)n2c1 [Compound 8r, 4-((2-([1,1′-Biphenyl]-4-yl)-6-(methylsulfonyl)imidazo[1,2-a]pyridin-3-yl)amino)benzoic acid]",5.00

# Same assay, conditions: Table 2, imidazo[1,2-a]pyrazin-3-amine core; read-out: IC50
row,pIC50,Structure (SMILES)
1,< 3.00,CCOC(=O)c1ccc(Nc2c(-c3ccccc3O)nc3cnccn23)cc1 [Compound 7a]
2,< 3.00,COc1ccc(-c2nc3cnccn3c2Nc2ccc(C(N)=O)cc2)cc1 [Compound 7c]
3,3.90,O=C(O)c1ccc(Nc2c(-c3cccc(O)c3)nc3cnccn23)cc1 [Compound 7d]
4,4.70,O=C(O)c1ccc(Nc2c(-c3ccc(O)cc3)nc3cnccn23)cc1 [Compound 7e]
5,4.74,O=C(O)c1ccc(Nc2c(-c3ccccc3)nc3cnccn23)c(O)c1 [Compound 7f]
6,2.64,COc1ccccc1Nc1c(-c2ccc(C(=O)O)cc2)nc2cnccn12 [Compound 7g]
7,< 3.00,Cc1ccc(-c2nc3cnccn3c2Nc2ccc(C(N)=O)cc2)cc1 [Compound 7h]
8,< 3.00,CNC(=O)c1ccc(Nc2c(-c3ccccc3)nc3cnccn23)cc1 [Compound 7i]
9,< 3.00,COC(=O)c1cccc(Nc2c(-c3ccccc3O)nc3cnccn23)c1 [Compound 7j]
10,< 3.00,COC(=O)c1ccccc1Nc1c(-c2ccccc2O)nc2cnccn12 [Compound 7k]
11,3.43,O=C(O)c1cccc(Nc2c(-c3ccccc3O)nc3cnccn23)c1 [Compound 7m]
12,2.69,O=C(O)c1cccc(Nc2c(-c3cccc(O)c3)nc3cnccn23)c1 [Compound 7n]
13,3.67,O=C(O)c1cccc(Nc2c(-c3ccc(O)cc3)nc3cnccn23)c1 [Compound 7o]
14,3.03,O=C(O)c1cccc(Nc2c(-c3ccc(N4CCOCC4)cc3)nc3cnccn23)c1 [Compound 7p]
15,2.54,CN(C)c1ccc(-c2nc3cnccn3c2Nc2cccc(C(=O)O)c2)cc1 [Compound 7q]
16,< 3.00,"CCOC(=O)c1cccc(Nc2c(-c3ccc(C(=O)O)cc3)nc3cnccn23)c1 [Compound 7r, 4-(3-((3-(ethoxycarbonyl)phenyl)amino)imidazo[1,2-a]pyrazin-2-yl)benzoic acid]"
17,< 3.00,CN(C)c1ccc(-c2nc3cnccn3c2Nc2ccc(C(=O)O)cc2)cc1 [Compound 7v]
18,< 3.00,O=C(O)c1ccc(Nc2c(-c3ccc(Cl)cc3)nc3cnccn23)cc1 [Compound 7w]
19,< 3.00,O=C(O)c1ccc(Nc2c(-c3cccc(Cl)c3)nc3cnccn23)cc1 [Compound 7x]
20,< 3.00,O=C(O)c1ccc(Nc2c(-c3cccc(Br)c3)nc3cnccn23)cc1 [Compound 7y]
21,< 3.00,"O=C(O)c1ccccc1Nc1c(-c2ccccc2O)nc2cnccn12 [Compound 7′s, 2-((2-(2-Hydroxyphenyl)imidazo[1,2-a]pyrazin-3-yl)amino)benzoic acid]"
22,< 3.00,"O=C(O)c1ccc(-c2nc3cnccn3c2Nc2cccc(C(=O)O)c2)cc1 [Compound 7′t, 3-((2-(4-Carboxyphenyl)imidazo[1,2-a]pyrazin-3-yl)amino)benzoic acid]"
23,< 3.00,"O=C(O)c1ccc(Nc2c(-c3ccc(F)cc3)nc3cnccn23)cc1 [Compound 7′z, 4-((2-(4-Fluorophenyl)imidazo[1,2-a]pyrazin-3-yl)amino)benzoic acid]"
24,< 3.00,O=C(O)c1cccc(Nc2c(-c3ccccc3)nc3cnccn23)c1 [Compound 71]

# Same assay, conditions: Table 3, values in brackets (footnote vi); read-out: TDP1 IC50 (μM), separated data from previous experiments
row,Structure (SMILES),IC50
1,Cc1ccc(-c2nc3cnccn3c2Nc2cccc(C(=O)O)c2)cc1 [Compound M8],233 µM

# Same assay, conditions: Table 10, PROTACs; read-out: TDP1 IC50
row,pIC50,Structure (SMILES)
1,< 4.00,"Cc1ncsc1-c1ccc(CNC(=O)[C@@H]2C[C@@H](O)CN2C(=O)[C@@H](NC(=O)COCCOCCOCCn2cc(COc3ccc(-c4nc5cc(-c6ccccc6)ccn5c4Nc4ccc(C(=O)O)cc4)cc3)nn2)C(C)(C)C)cc1 [XZ680, 4-((2-(4-((1-((S)-13-((2S,4R)-4-hydroxy-2-((4-(4-methylthiazol-5-yl)benzyl)carbamoyl)pyrrolidine-1-carbonyl)-14,14-dimethyl-11-oxo-3,6,9-trioxa-12-azapentadecyl)-1H-1,2,3-triazol-4-yl)methoxy)phenyl)-7-phenylimidazo[1,2-a]pyridin-3-yl)amino)benzoic acid]"
2,< 4.00,"Cc1ncsc1-c1ccc(CNC(=O)[C@@H]2C[C@@H](O)CN2C(=O)[C@@H](NC(=O)COCCOCCOCCOCCn2cc(COc3ccc(-c4nc5cc(-c6ccccc6)ccn5c4Nc4ccc(C(=O)O)cc4)cc3)nn2)C(C)(C)C)cc1 [XZ681, 4-((2-(4-((1-((S)-16-((2S,4R)-4-Hydroxy-2-((4-(4-methylthiazol-5-yl)benzyl)carbamoyl)pyrrolidine-1-carbonyl)-17,17-dimethyl-14-oxo-3,6,9,12-tetraoxa-15-azaoctadecyl)-1H-1,2,3-triazol-4-yl)methoxy)phenyl)-7-phenylimidazo[1,2-a]pyridin-3-yl)amino)benzoic acid]"
3,< 4.00,"Cc1ncsc1-c1ccc(CNC(=O)[C@@H]2C[C@@H](O)CN2C(=O)[C@@H](NC(=O)COCCOCCn2cc(-c3ccn4c(Nc5ccc(C(=O)O)cc5)c(-c5ccccc5)nc4c3)nn2)C(C)(C)C)cc1 [XZ682, 4-((7-(1-(2-(2-(2-(((S)-1-((2S,4R)-4-Hydroxy-2-((4-(4-methylthiazol-5-yl)benzyl)carbamoyl)pyrrolidin-1-yl)-3,3-dimethyl-1-oxobutan-2-yl)amino)-2-oxoethoxy)ethoxy)ethyl)-1H-1,2,3-triazol-4-yl)-2-phenylimidazo[1,2-a]pyridin-3-yl)amino)benzoic acid]"

# Biological target: TDP2 (Homo sapiens (Human), UniProt O95551)
# Sequence (O95551 whole entry, species assumed): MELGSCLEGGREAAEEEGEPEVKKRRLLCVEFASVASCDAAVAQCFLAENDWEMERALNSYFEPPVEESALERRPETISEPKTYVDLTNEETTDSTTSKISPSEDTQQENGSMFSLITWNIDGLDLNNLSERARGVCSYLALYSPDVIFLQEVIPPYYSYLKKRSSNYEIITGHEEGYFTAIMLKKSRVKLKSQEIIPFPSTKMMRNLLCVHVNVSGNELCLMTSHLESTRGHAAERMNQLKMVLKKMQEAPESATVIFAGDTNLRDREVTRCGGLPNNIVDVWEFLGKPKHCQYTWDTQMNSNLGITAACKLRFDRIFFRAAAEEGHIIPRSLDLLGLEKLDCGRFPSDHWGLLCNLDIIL
# Assay: gel-based TDP2 fluorescence assay in vitro
# Assay type: biochemical
# Details: Table 7, HPLC-purified oxime leads; read-out: TDP2 IC50
# Description: as §1, §2
row,pIC50,Structure (SMILES)
1,< 4.00,"Cc1cncc(Oc2ccc(/C=N\OCc3ccc4nc(-c5ccccc5)c(Nc5ccc(C(=O)O)cc5)n4c3)cc2)n1 [XZ713, (Z)-4-((6-((((4-((6-Methylpyrazin-2-yl)oxy)benzylidene)amino)oxy)methyl)-2-phenylimidazo[1,2-a]pyridin-3-yl)amino)benzoic acid]"

# Same assay, conditions: Table 10, PROTACs; read-out: TDP2 IC50
row,pIC50,Structure (SMILES)
1,< 4.00,"Cc1ncsc1-c1ccc(CNC(=O)[C@@H]2C[C@@H](O)CN2C(=O)[C@@H](NC(=O)COCCOCCOCCn2cc(COc3ccc(-c4nc5cc(-c6ccccc6)ccn5c4Nc4ccc(C(=O)O)cc4)cc3)nn2)C(C)(C)C)cc1 [XZ680, 4-((2-(4-((1-((S)-13-((2S,4R)-4-hydroxy-2-((4-(4-methylthiazol-5-yl)benzyl)carbamoyl)pyrrolidine-1-carbonyl)-14,14-dimethyl-11-oxo-3,6,9-trioxa-12-azapentadecyl)-1H-1,2,3-triazol-4-yl)methoxy)phenyl)-7-phenylimidazo[1,2-a]pyridin-3-yl)amino)benzoic acid]"
2,< 4.00,"Cc1ncsc1-c1ccc(CNC(=O)[C@@H]2C[C@@H](O)CN2C(=O)[C@@H](NC(=O)COCCOCCOCCOCCn2cc(COc3ccc(-c4nc5cc(-c6ccccc6)ccn5c4Nc4ccc(C(=O)O)cc4)cc3)nn2)C(C)(C)C)cc1 [XZ681, 4-((2-(4-((1-((S)-16-((2S,4R)-4-Hydroxy-2-((4-(4-methylthiazol-5-yl)benzyl)carbamoyl)pyrrolidine-1-carbonyl)-17,17-dimethyl-14-oxo-3,6,9,12-tetraoxa-15-azaoctadecyl)-1H-1,2,3-triazol-4-yl)methoxy)phenyl)-7-phenylimidazo[1,2-a]pyridin-3-yl)amino)benzoic acid]"
3,< 4.00,"Cc1ncsc1-c1ccc(CNC(=O)[C@@H]2C[C@@H](O)CN2C(=O)[C@@H](NC(=O)COCCOCCn2cc(-c3ccn4c(Nc5ccc(C(=O)O)cc5)c(-c5ccccc5)nc4c3)nn2)C(C)(C)C)cc1 [XZ682, 4-((7-(1-(2-(2-(2-(((S)-1-((2S,4R)-4-Hydroxy-2-((4-(4-methylthiazol-5-yl)benzyl)carbamoyl)pyrrolidin-1-yl)-3,3-dimethyl-1-oxobutan-2-yl)amino)-2-oxoethoxy)ethoxy)ethyl)-1H-1,2,3-triazol-4-yl)-2-phenylimidazo[1,2-a]pyridin-3-yl)amino)benzoic acid]"
